The values below come from article PMC2965657, “Antioxidant Biomarkers from Vanda coerulea Stems Reduce Irradiated HaCaT PGE-2 Production as a Result of COX-2 Inhibition” (PLoS ONE, 2010).

The IC50 is the concentration that inhibits the measured activity by half. For orientation: inhibition means how much of the control response was suppressed.

Read-outs that look alike come from different tables or passages of the source. Some results are limits rather than exact numbers.

A short description of test [1]: •OH radical scavenging (luminol chemiluminescence). The settings on record: mean ± sd. The procedure: (§1) All in vitro radical-scavenging experiments (DPPH, ^•OH/luminol chemiluminescence) and IC50 calculations were assayed as previously described by Parejo et al. Results were expressed as percentage inhibition of DPPH discolouration and luminol chemiluminescence reduction, respectively. The concentration effect (logarithmic curve) obtained for each compound was used to calculate IC50. Serial dilutions of 1–5, and quercetin (used as standard reference) were prepared in MeOH.

Test [2] is described as follows: DPPH radical scavenging (DPPH discolouration). The settings on record: mean ± sd; half-maximal neutralization of radical DPPH. The procedure: as §1
For test [3], the system named is H2O2 stressed HaCaT cells. The test is described as follows: Intracellular ROS neutralization with DCFH-DA probe in H2O2 stressed HaCaT. The settings on record: Homo sapiens, H2O2 100 µM, mean ± sd. The format is cell-based. On the procedure: (§2) For measurement of reactive oxygen species neutralization and PGE-2 quantification with Vanda coerulea stem biomarkers, HaCaT cells were seeded in black 96-well microplates (Greiner Bio One 655090) at a concentration of 10^3 cells/well in complemented KSFM with 5% FBS. Microplates were incubated during 24 h (37°C, 5% CO2) before UVB irradiation at 60 mJ/cm^2 and treatment. For western blot analysis HaCaT cells were seeded at a density of 10^6 cells/ 100 mm dishes and incubated during 48 h before irradiation with UVB at 60 mJ/cm^2 (UV Lamp, VL-6LM, Vilber Lourmat) and treatment. All experiments were performed at 90% cell confluency. Cell viability was previously evaluated thanks to XTT analysis according to Roehm NW et al. Serial dilutions of 1–3, were prepared in DMSO (0.1% v/v final concentration). The first higher concentration tested was not cytotoxic (data not shown).
The DCFH-DA method was used to detect the levels of intracellular ROS [32] DCFH-DA diffuses into cells, where it is hydrolyzed by intracellular esterase to polar 2′,7′-dichlorodihydrofluorescein. This non-fluorescent fluorescein analog is oxidized by intracellular oxidants to a highly fluorescent, 2′,7′-dichlorofluorescein. Tocopherol [Sigma] (25 µM) was used as a positive reference. HaCaT cells were seeded as described and treated with serial dilutions of 1–3 and quercetin (standard reference) after 24 h incubation. Treated microplates were further incubated during 24 h (37°C, 5% CO2). HaCaT cells were washed with phosphate buffer saline (PBS), and DCFH-DA (0.05 mM) was added to the cells. 45 min after incubation, cells were stimulated by a H2O2 solution (100 µM in PBS) to generate an oxidative stress. Immediately after F(T0) and 40 min after stimulation F(T40), DCFH fluorescence was detected at an excitation wavelength of 485 nm and an emission wavelength of 535 nm, using a SpectraFluor Plus spectrofluorometer (Tecan). Two kinds of assay controls were used: negative control was non-stimulated cells and positive control was H2O2 stressed cells (DMSO 0.1% v/v). Results were expressed in percentage of fluorescence inhibition (% of ROS neutralization) calculated by comparison with H2O2 stimulated cells.
(% of ROS neutralization) = [1- [F(T40)-F(T0)] sample/[F(T40)-F(T0)] positive control] ×100.
Inhibition percentages were plotted according to compounds 1–3 and quercetin concentrations. Logarithmic regression analysis of the mean replicate values was used to calculate IC50 (Concentration causing half-maximal neutralization of ROS on H2O2 stressed HaCaT)

The conditions of test [4]: cited from earlier work.
The target of another test is T1, human recombinant COX-2 (Homo sapiens, UniProt P35354).
T1 sequence (P35354 18-604): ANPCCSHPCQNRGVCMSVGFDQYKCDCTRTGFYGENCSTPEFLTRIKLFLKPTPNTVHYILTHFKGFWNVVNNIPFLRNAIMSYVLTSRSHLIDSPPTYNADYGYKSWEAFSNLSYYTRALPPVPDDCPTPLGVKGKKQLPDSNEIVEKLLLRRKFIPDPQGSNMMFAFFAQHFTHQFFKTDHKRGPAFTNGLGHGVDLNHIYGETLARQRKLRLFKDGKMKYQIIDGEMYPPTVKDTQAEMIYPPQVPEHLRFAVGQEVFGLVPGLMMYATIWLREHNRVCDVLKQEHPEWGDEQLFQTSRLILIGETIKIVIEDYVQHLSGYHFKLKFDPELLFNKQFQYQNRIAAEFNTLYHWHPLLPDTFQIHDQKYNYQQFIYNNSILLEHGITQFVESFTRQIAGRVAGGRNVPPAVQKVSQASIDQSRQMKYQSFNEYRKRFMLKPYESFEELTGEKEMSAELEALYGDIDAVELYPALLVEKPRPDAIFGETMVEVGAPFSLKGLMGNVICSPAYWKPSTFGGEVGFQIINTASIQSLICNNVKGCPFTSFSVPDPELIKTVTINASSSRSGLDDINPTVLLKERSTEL
In words: COX-2 enzyme activity (PGE-2 formation from arachidonic acid). The format is biochemical. The settings on record: for IC50: 2 µM arachidonic acid, mean ± sd, read-out: IC50 inhibition of COX-2 enzyme activity; for inhibition of COX-2 enzyme activity: up to 100 µM. The procedure: Serial dilutions of 1–3 were prepared in DMSO. Six concentrations were tested from 0.1 µM to 100 µM for imbricatin (1), from 0.03 to 100 µM for methoxycoelonin (2) and from 0.3 µM to 100 µM for gigantol (3).
Stilbenoids 1–3, indomethacin and water (negative control) were pre-incubated for 20 min at 22°C with the human recombinant COX-2 enzyme (0.2 µg) in buffer containing 100 mM Tris-HCl (pH 8.0), 2 mM phenol and 1 µM hematine. Thereafter, the reaction was initiated by addition of 2 µM arachidonic acid and the mixture was incubated for 5 min at 22°C. For basal control measurements, arachidonic acid was omitted from the medium. Indomethacin was used as positive inhibitory reference.
Following incubation, the reaction was stopped by the addition of 1 M HCl then 1 M Tris/HCl (pH 8.0) followed by cooling to 4°C. The amount of PGE-2 present in the reaction mixture was quantified using an EIA detection kit (Cayman Chemical).
The results were expressed as inhibition percentage of the control enzyme activity:
100–[(activity measured in the presence of the compound/control enzyme activity) ×100]
The IC50 values (concentration causing a half-maximal inhibition of control enzyme activity) and Hill coefficients (nH) were determined by non-linear regression analysis of the inhibition curves generated with mean replicate values using Hill equation curve fitting.

The test system of test [5] is UVB (60 mJ/cm^2) irradiated HaCaT keratinocytes. The test is described as follows: PGE-2 production by UVB irradiated HaCaT (EIA). The settings on record: for IC50: read-out: IC50 inhibition of HaCaT PGE-2 production. Type of test: cell-based, human. The procedure: as §2
Indomethacin (2.79 µM), a non-steroidal COX inhibitor, was used as a positive reference. Treated microplates were incubated at 37°C, 5% CO2. Untreated irradiated and non irradiated cells (DMSO 0.1% v/v final) were respectively used as positive and negative controls. After 24 h, supernatants were harvested for PGE-2 concentration measurement and BCA assay was realized to determine total cellular protein in each well. PGE-2 concentration was measured using the enzyme immunoassay Parameter™ PGE-2 kit (R&D Systems) according to the manufacturer's instructions. Each PGE-2 quantification (QPGE-2) was reported to total protein concentration per well.
Results were expressed as inhibition percentage of PGE-2 (I PGE-2) production compared with untreated irradiated cells (positive control).
I PGE-2 = 100- ((QPGE2) sample/ (QPGE2) positive control) ×100.
Inhibition percentages were plotted according to compounds 1–3 concentrations. Logarithmic regression analysis of the mean replicate values was used to calculate IC50 (Concentration causing half-maximal Inhibition of irradiated HaCaT PGE-2 production)

Test [6] has as its system irradiated (UVB 60 mJ/cm2) normal human epidermal keratinocytes (NHEK). In words: PGE-2 release from UVB irradiated normal human epidermal keratinocytes. The format is cell-based. The following applies: light or radiation study, vs UVB+ control, read-out: inhibition of PGE-2 production. On the procedure: Supplementary file pone.0013713.s001.tif: Figure S1 Concentration-dependent effect of stilbenoids (1-3) on PGE-2 release from irradiated (UVB 60 mJ/cm2) normal human epidermal keratinocytes (NHEK). Histogram represents the quantity of PGE-2 produced (PGE-2/ total NHEK proteins pg/µg) according to different treatments. Untreated irradiated (UVB+) and non irradiated (UVB-) NHEK were used as positive and negative controls, respectively. […] Inhibition percentages of PGE-2 release were calculated by comparison with the positive control (UVB+). Values represen mean ± sds calculated with three independent experiments. Treatment groups were compared by using one way analysis of variance ANOVA post-hoc test. Student paired t test was used to compare each stilbenoid effect to the positive control. Statistical significance (*) was set at p<0.05. Significant differences were observed between each biomarker effect. IC50 were calculated with more points than those represented here on the graph. (0.82 MB TIF) Click here for additional data file.

The subject of test [7] is COX-2 expression in irradiated HaCaT cells. In words: COX-2 expression by Western blot in UVB irradiated HaCaT. The format is cell-based, human. The settings on record: 2.87 µM, 16 h, COX-2/β-actin vs UVB+. The procedure: as §2
After UVB irradiation 100 mm dishes were treated with stilbenoids 1–3 at 23 µM and 2.87 µM in a serum free medium and incubated during 16 h (37°C, 5% CO2). Untreated irradiated (UVB+) and non irradiated (UVB-) cells were used as positive and negative controls respectively. […] The protein concentration of each sample was determined using a Bradford assay. […] Results were expressed as fold decrease compared to the (UVB+) control. […]
(In general: Immunoblotting shows a protein as a band on a membrane.)

Where [8] appears, read: Homo sapiens, light or radiation study, UVB 60 mJ/cm^2 irradiated HaCaT, 24 h, mean ± sd.

As to `O=c1c(O)c(-c2ccc(O)c(O)c2)oc2cc(O)cc(O)c12` [Quercetin, reference compound], the IC50 in test [1] came to 0.045 ± 0.012 µM; in test [2], 2.42 ± 0.65 µM; in test [3] it was 13.8 ± 2.2 µM.

Take `Oc1cc2c3c(c1)COc1cc(O)cc(c1-3)CC2` [Flavidin (4), Flavidin]: the IC50 in test [1] is 0.076 ± 0.014 µM; in test [2] it was 6.61 ± 1.07 µM.

On to Coelonin [Coelonin (5)], for which the IC50 in test [1] is 0.079 ± 0.018 µM; in test [2] it was 8.47 ± 1.58 µM; in test [4] (Wang J et al) it was 16.7 µM.

As for `COc1c(O)cc2c3c1COc1cc(O)cc(c1-3)CC2` [Imbricatin (1), Imbricatin], the IC50 in test [1] is 0.034 ± 0.011 µM; at human recombinant COX-2, 12 ± 1.2 µM; in test [5] (setting [8]), 12.2 ± 2.9 µM; in test [2] it was 8.37 ± 0.61 µM; in test [4] (Guo XY et al) it was 8.8 µM; in test [3] it was 8.8 ± 1.7 µM. The “inhibition of COX-2 enzyme activity” value at human recombinant COX-2 was “inhibited significantly”.

For the molecule `COc1ccc2c(c1)c(CC(=O)O)c(C)n2C(=O)c1ccc(Cl)cc1` [Indomethacin, reference compound], the inhibition at 2.79 µM in test [6] was found to be 86%; in test [5] (Homo sapiens, light or radiation study, 2.79 µM, UVB irradiated HaCaT, vs UVB+ control) it was 54%. The IC50 in test [5] (setting [8]) was determined as 2.7 ± 0.7 µM.

On to `COc1cc(O)cc(CCc2ccc(O)c(OC)c2)c1` [Gigantol (3), Gigantol], for which the 50% inhibitory concentration (IC50) in test [1] is 0.157 ± 0.039 µM; at human recombinant COX-2 it was no less than 100 µM; in test [2] it was 14 ± 1.69 µM; in test [4] (Zhang X et al), 56.4 µM; in test [3], 20.6 ± 0.5 µM. For the same molecule, the “effect on UVB-induced COX-2 expression” value in test [7] was “did not inhibit”. The “inhibition of COX-2 enzyme activity” value on human recombinant COX-2 is “did not display significant inhibition”. In addition, the “inhibition of PGE-2 production” value in test [5] (2.87 µM, UVB irradiated HaCaT) was “strong inhibition”. Further, the “fold stronger inhibition of PGE-2 production on human HaCaT than on murine macrophage RAW 264.7” value in test [5] (HaCaT (this work) versus RAW 264.7 (ref 38)) was 16 fold. Further, in test [5] (UVB 60 mJ/cm^2 irradiated HaCaT, 24 h, mean ± sd), the “IC50 inhibition of HaCaT PGE-2 production” value is listed as “No concentration-dependanteffect”.

`COc1cc2c(cc1O)CCc1cc(O)cc(OC)c1-2` [Methoxycoelonin (2), Methoxycoelonin]: the IC50 in test [1] was 0.035 ± 0.008 µM; at human recombinant COX-2 it was 5.8 ± 1.2 µM; in test [5] (setting [8]), 19.3 ± 3.8 µM; in test [2], 9.01 ± 0.93 µM; in test [3] it was 9.4 ± 2.1 µM. On human recombinant COX-2, the “inhibition of COX-2 enzyme activity” value is on record as “inhibited significantly”.
